This note sets out measurements from patent publication US7829563B2, “Aminoamides as orexin antagonists” (Hoffmann-La Roche Inc., priority 2007, dated 2010).

Counter-ions that a name gives are not always drawn.

One may read the Kb as the affinity of an antagonist, worked out from how it opposes an agonist.

The assay deals with T1, human orexin-2 (hOX2) receptors (Homo sapiens, UniProt O43614).
T1 construct: expressed in transfected cells
T1 sequence (O43614 1-444): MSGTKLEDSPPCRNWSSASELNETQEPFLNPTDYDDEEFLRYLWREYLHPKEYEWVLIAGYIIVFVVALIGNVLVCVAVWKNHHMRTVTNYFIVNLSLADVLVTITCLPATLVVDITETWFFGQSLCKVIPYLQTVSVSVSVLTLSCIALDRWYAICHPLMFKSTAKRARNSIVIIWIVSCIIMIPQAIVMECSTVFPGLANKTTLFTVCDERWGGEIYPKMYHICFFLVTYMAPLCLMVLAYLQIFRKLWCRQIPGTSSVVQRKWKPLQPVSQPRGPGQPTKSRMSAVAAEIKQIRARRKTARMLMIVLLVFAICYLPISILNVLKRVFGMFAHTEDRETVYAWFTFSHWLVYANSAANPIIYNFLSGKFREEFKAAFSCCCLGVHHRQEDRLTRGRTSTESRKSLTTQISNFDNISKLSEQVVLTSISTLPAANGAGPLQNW
The experiment in a line: Intracellular Ca2+ mobilization assay (FLIPR), antagonism of orexin-A. The assay is classed as cell-based. To be noted: CHO(dHFr−) cells stably expressing hOX2; orexin-A at EC80 as agonist; Kb=IC50/(1+[A]/EC50); read-out: Kb (μM) OX2R (human). How it is done: R^7 and R^8 in scheme 5 are hydrogen, and the other substituents are as described above The compounds were investigated in accordance with the test given hereinafter. Intracellular Ca^2+ Mobilization Assay
The Chinese Hamster Ovary (dHFr−) mutant cell line stably expressing human orexin-1 (hOX1) or human orexin-2 (hOX2) receptors were maintained in Dulbecco's Modified Eagle Medium (1×) with GlutaMax™ 1, 4500 mg/L D-Glucose and Sodium Pyruvate (Catalog No. 31966-021, Invitrogen, Carlsbad, Calif.), 5% dialyzed fetal calf serum (Catalog No. 26400-044), 100 μg/ml penicillin and 100 μg/ml streptomycin. The cells were seeded at 5×10^4 cells/well in the poly-D-lysine treated, 96-well, black/clear-bottomed plates (Catalog No. BD356640, BD Biosciences, Palo Alto, Calif.). 24 h later, the cells were loaded for 1 h at 37° C. with 4 μM Flou-4 acetoxymethyl ester (Catalog No. F-14202, Molecular Probes, Eugene, Oreg.) in FLIPR buffer (1×HBSS, 20 mM HEPES, 2.5 mM Probenecid). Hanks' Balanced Salt Solution (HBSS) (10×) (catalog No. 14065-049) and HEPES (1M) (catalog No. 15630-056) were purchased from Invitrogen, Carlsbad, Calif. Probenecid (250 mM) (catalog No. P8761) was from Sigma, Buchs, Switzerland. The cells were washed five times with FLIPR buffer to remove excess dye and intracellular calcium mobilization, [Ca^2+]i were measured using a Fluorometric Imaging Plate Reader (FLIPR-96, Molecular Devices, Menlo Park, Calif.) as described previously (Malherbe et al., Mol. Pharmacol., 64, 823-832, 2003). Orexin A (catalog No. 1455, Toris Cookson Ltd, Bristol, UK) was used as agonist. Orexin A ([…] stock solution in DMSO) was diluted in FLIPR buffer+0.1% BSA. The EC50 and EC80 values of orexin-A were measured daily from standard agonist concentration-response curves in CHO(dHFr−)-OX1R and —OX2R cell lines. All compounds were dissolved in 100% DMSO. Inhibition curves were determined by addition of 11 concentrations (0.0001-10 μM) of inhibitory compounds and using EC80 value of orexin-A as agonist (a concentration which gave 80% of max agonist response, determined daily). The antagonists were applied 25 min (incubation at 37° C.) before the application of the agonist. Responses were measured as peak increase in fluorescence minus basal, normalized to the maximal stimulatory effect induced by EC80 value of orexin-A or orexin-B. Inhibition curves were fitted according to the Hill equation: y=100/(1+(x/IC50)^nH), where nH=slope factor using Excel-fit 4 software (Microsoft). Kb values were calculated according to the following equation Kb=IC50/(1+[A]/EC50) where A is the concentration of agonist added which is very close to agonist EC80 value, and IC50 and EC50 values were derived from the antagonist inhibition and orexin-A or B agonist curves, respectively.
On the technique in general: A change in cytosolic calcium serves as a functional read-out for many receptors and channels.
Take `CNC(=O)[C@H](N[C@@H](CCc1ccc(Cl)cc1)c1ccc(OC)c(OC)c1Cl)c1ccccc1` (racemic) [Example 40, (S,R)-2-[(R,S)-1-(2-Chloro-3,4-dimethoxy-phenyl)-3-(4-chloro-phenyl)-propylamino]-N-methyl-2-phenyl-acetamide]: the Kb turned out to be 0.0068 µM.
With `CNC(=O)[C@H](N[C@@H](CCc1ccc(Cl)cc1)c1ccc2c(c1)CCO2)c1ccccc1` (racemic) [Example 38, (S,R)-2-[(R,S)-3-(4-Chloro-phenyl)-1-(2,3-dihydro-benzofuran-5-yl)-propylamino]-N-methyl-2-phenyl-acetamide], the Kb is 0.0096 µM.
The result for `CNC(=O)[C@H](N[C@@H](CCc1ccc(C(F)(F)F)nc1)c1cccc(OC(F)F)c1)c1ccccc1` (racemic) [Example 225, (S,R)-2-[(R,S)-1-(3-Difluoromethoxy-phenyl)-3-(6-trifluoromethyl-pyridin-3-yl)-propylamino]-N-methyl-2-phenyl-acetamide] reads 0.0144 µM; that for `CNC(=O)[C@H](N[C@@H](CCc1ccc(C(F)(F)F)cc1)c1cccnc1OC)c1ccccc1` (racemic) [Example 179, (S,R)-2-[(R,S)-1-(2-Methoxy-pyridin-3-yl)-3-(4-trifluoromethyl-phenyl)-propylamino]-N-methyl-2-phenyl-acetamide], 0.0081 µM; that for `Cc1cc([C@H](CCc2ccc(C(F)(F)F)nc2)N[C@@H](C(N)=O)c2ccccc2)ccc1F` [Example 353, (R)-2-[(S)-1-(4-Fluoro-3-methyl-phenyl)-3-(6-trifluoromethyl-pyridin-3-yl)-propylamino]-2-phenyl-acetamide], 0.0057 µM.
The value for `CNC(=O)[C@H](N[C@@H](CCc1ccc(C)cc1)c1ccc(F)c(C)c1)c1ccccc1` [Example 397, (R)-2-[(S)-1-(4-Fluoro-3-methyl-phenyl)-3-p-tolyl-propylamino]-N-methyl-2-phenyl-acetamide] was 0.0042 µM.
`CNC(=O)[C@H](N[C@@H](CCc1ccc(Cl)cc1)c1ccc(OC)c(OC)c1)c1ccccc1` (single isomer, unassigned) [Example 140]: the Kb was 0.0014 µM.
As to `CNC(=O)[C@H](N[C@@H](CCc1ccc(Cl)cc1)c1ccc(OC)c(OC)c1)c1ccccc1` [Example 163, (R)-2-[(S)-3-(4-Chloro-phenyl)-1-(3,4-dimethoxy-phenyl)-propylamino]-N-methyl-2-phenyl-acetamide], the Kb is 0.0011 µM.
`CCNC(=O)[C@H](NC(CCc1ccc(C(F)(F)F)cc1)c1ccc(OC)c(OC)c1)c1ccccc1` (single isomer, unassigned) [Example 13, (R)-2-[(R or S)-1-(3,4-Dimethoxy-phenyl)-3-(4-trifluoromethyl-phenyl)-propylamino]-N-ethyl-2-phenyl-acetamide]: the Kb was 0.0026 µM.
The result for `CNC(=O)[C@H](N[C@@H](CCc1ccc(C(F)(F)F)nc1)c1ccc(Cl)c(OC)c1)c1ccc(F)cc1` (racemic) [Example 224, (S,R)-2-[(R,S)-1-(4-Chloro-3-methoxy-phenyl)-3-(6-trifluoromethyl-pyridin-3-yl)-propylamino]-2-(4-fluoro-phenyl)-N-methyl-acetamide] reads 0.0057 µM; that for `CNC(=O)[C@H](N[C@@H](CCc1ccc(C(F)(F)F)cc1)c1cc(C)ccc1F)c1ccccc1` [Example 123, (R)-2-[(S)-1-(2-Fluoro-5-methyl-phenyl)-3-(4-trifluoromethyl-phenyl)-propylamino]-N-methyl-2-phenyl-acetamide], 0.0129 µM.
Turning to `CNC(=O)[C@H](N[C@@H](CCc1ccc(C(F)(F)F)cc1)c1ccc(OC)c(OC)c1)c1ccc(F)cc1` (racemic) [Example 34, (S,R)-2-[(R,S)-1-(3,4-Dimethoxy-phenyl)-3-(4-trifluoromethyl-phenyl)-propylamino]-2-(4-fluoro-phenyl)-N-methyl-acetamide], the Kb stood at 0.0049 µM.
For `CNC(=O)[C@H](N[C@@H](CCc1ccc(Cl)cc1)c1ccc(OC)c(OC)c1)c1ccc(Cl)cc1` (racemic) [Example 319, (R,S)-2-(4-Chloro-phenyl)-2-[(S,R)-3-(4-chloro-phenyl)-1-(3,4-dimethoxy-phenyl)-propylamino]-N-methyl-acetamide], the Kb turned out to be 0.0086 µM.
`CNC(=O)[C@H](N[C@@H](CCc1ccc(C(F)(F)F)nc1)c1ccc(OC(F)F)c(OC)c1)c1ccc(Cl)cc1` (racemic) [Example 234, (S,R)-2-(4-Chloro-phenyl)-2-[(R,S)-1-(4-difluoromethoxy-3-methoxy-phenyl)-3-(6-trifluoromethyl-pyridin-3-yl)-propylamino]-N-methyl-acetamide]: the Kb turned out to be 0.013 µM.
`CNC(=O)C(NC(CCc1ccc(C)nc1)c1ccc(F)c(C)c1)c1ccccc1` (mixture of isomers) [Example 258, 2-[1-(4-Fluoro-3-methyl-phenyl)-3-(6-methyl-pyridin-3-yl)-propylamino]-N-methyl-2-phenyl-acetamide]: the Kb stood at 0.0172 µM.
On to `CNC(=O)[C@H](N[C@@H](CCc1ccc(C(F)(F)F)nc1)c1ccc(Cl)c(C)c1)c1ccccc1` (racemic) [Example 244, (S,R)-2-[(R,S)-1-(4-Chloro-3-methyl-phenyl)-3-(6-trifluoromethyl-pyridin-3-yl)-propylamino]-N-methyl-2-phenyl-acetamide], for which the Kb turned out to be 0.0145 µM.
For the compound `CNC(=O)[C@H](N[C@@H](CCc1ccc(C(F)(F)F)nc1)c1ccc2c(c1)CCCC2)c1ccc(F)cc1` (racemic) [Example 57, (S,R)-2-(4-Fluoro-phenyl)-N-methyl-2-[(R,S)-1-(5,6,7,8-tetrahydro-naphthalen-2-yl)-3-(6-trifluoromethyl-pyridin-3-yl)-propylamino]-acetamide], the Kb turned out to be 0.0093 µM.
The result for `CNC(=O)[C@H](NC(CCc1ccc(C(F)(F)F)cc1)c1ccc(OC)c(OC)c1)c1ccccc1` (single isomer, unassigned) [Example 6, (R)-2-[(S or R)-1-(3,4-Dimethoxy-phenyl)-3-(4-trifluoromethyl-phenyl)-propylamino]-N-methyl-2-phenyl-acetamide] reads 0.0017 µM; that for `CNC(=O)[C@H](N[C@@H](CCc1ccc(C(F)(F)F)nc1)c1ccc(F)c(C)c1)c1ccccc1` (racemic) [Example 228, (S,R)-2-[(R,S)-1-(4-Fluoro-3-methyl-phenyl)-3-(6-trifluoromethyl-pyridin-3-yl)-propylamino]-N-methyl-2-phenyl-acetamide], 0.0035 µM.
For the compound `CNC(=O)C(NC(CCc1ccc(C(F)(F)F)cc1)c1sc(C)nc1C)c1ccc(F)cc1` (stereo not shown) [Example 80, 2-[1-(2,4-Dimethyl-thiazol-5-yl)-3-(4-trifluoromethyl-phenyl)-propylamino]-2-(4-fluoro-phenyl)-N-methyl-acetamide], the Kb worked out at 0.0192 µM.
The value for `CNC(=O)[C@H](N[C@H](CCc1ccc(C(F)(F)F)nc1)c1ccc(Cl)c(C)c1)c1ccccc1` (racemic) [Example 243, (S,R)-2-[(S,R)-1-(4-Chloro-3-methyl-phenyl)-3-(6-trifluoromethyl-pyridin-3-yl)-propylamino]-N-methyl-2-phenyl-acetamide] was 0.0122 µM.
In the case of `CNC(=O)[C@H](N[C@@H](CCc1ccc(C(F)(F)F)cc1)c1cccc(OC)c1)c1ccccc1` [Example 221, (R)-2-[(S)-1-(3-Methoxy-phenyl)-3-(4-trifluoromethyl-phenyl)-propylamino]-N-methyl-2-phenyl-acetamide hydrochloride], the antagonist dissociation constant (Kb) was 0.0026 µM.
